# Laboratory results: patent publication US7973069B2 (PTC Therapeutics, Inc., priority 2004, dated 2011)
# “And” between values parts separate entries of the source, which are not always exact repeats. Equal entries are not always repeated.
# System: HCV replicon
# Assay type: cell-based
row,Compound,IC50
1,CCOc1ccc2c(C#N)c(-c3ccc(NC(=O)OC(C)C)cc3)n(CC3CCC3)c2c1 [Compound 1169],< 0.5 µM
2,CCCOC(=O)Nc1ccc(-c2c(C#N)c3ccc(OCCCCl)cc3n2CC)cc1 [Compound 1030],< 0.5 µM
3,CCn1c(-c2ccc(NC(=O)CCc3ccccc3)cc2)c(C#N)c2ccc(OC(F)(F)F)cc21 [Compound 916],0.5 to 2 µM
4,CCn1c(-c2ccc(NC(C)=O)cc2)c(C#N)c2ccc(OC(F)(F)F)cc21 [Compound 913],0.5 to 2 µM
5,C[C@@H](OC(=O)Nc1ccc(-c2c(C#N)c3ccc(Oc4cnccn4)cc3n2C2CC2)cc1)C1CC1 [Compound 2322],< 0.5 µM
6,CCCS(=O)(=O)Nc1ccc(-c2c(C#N)c3ccc(OC(F)F)cc3n2C(C)C)cc1 [Compound 867],0.5 to 2 µM
7,CC(C)(C)OC(=O)Nc1ccc(-c2c(C#N)c3ccc(OCCN4CCCC4)cc3n2C2CCC2)cc1 [Compound 1121],< 0.5 µM
8,C[C@@H](OC(=O)Nc1ccc(-c2c(C#N)c3ccc(OCCF)cc3n2C2CCC2)cc1)C1CC1 [Compound 2326],< 0.5 µM
9,CCn1c(-c2ccc(NS(=O)(=O)C3CC3)cc2)c(C#N)c2ccc(OC(F)(F)F)cc21 [Compound 883],< 0.5 µM
10,CCn1c(-c2cccc(NS(=O)(=O)CC)c2)c(C#N)c2ccc(OCCCN3CCOCC3)cc21 [Compound 1035],0.5 to 2 µM
11,CCNC(=O)Nc1ccc(-c2c(C#N)c3ccc(OCC)cc3n2C(C)C)cc1 [Compound 1098],0.5 to 2 µM
12,CCn1c(-c2ccc(NS(C)(=O)=O)c(C)c2)c(C#N)c2ccc(OC)cc21 [Compound 959],0.5 to 2 µM
13,CCC(C)OC(=O)Nc1ccc(-c2c(C#N)c3ccc(OC(F)F)cc3n2CC2CC2)cc1 (stereo not shown) [Compound 1268],0.5 to 2 µM
14,CCn1c(-c2cccc(N3CCOC3=O)c2)c(C#N)c2ccc(OCCCN3CCOCC3)cc21 [Compound 1069],0.5 to 2 µM
15,CC(C)OC(=O)Nc1ccc(-c2c(C#N)c3ccc(OCc4cccnc4)cc3n2C2CCC2)cc1 [Compound 1218],< 0.5 µM
16,CCCOC(=O)Nc1ccc(-c2c(C#N)c3ccc(OC(F)(F)F)cc3n2CC)cc1 [Compound 889],0.5 to 2 µM
17,CCn1c(-c2ccc(N3CC(=O)NC3=O)cc2)c(C#N)c2ccc(OC)cc21 [Compound 994],0.5 to 2 µM
18,CCOC(=O)Nc1ccc(-c2c(C#N)c3ccc(OCC)cc3n2C(C)C)cc1 [Compound 1065],0.5 to 2 µM and < 0.5 µM
19,CC(C)NC(=O)Nc1ccc(-c2c(C#N)c3ccc(OCCF)cc3n2C2CCC2)cc1 [Compound 1108],< 0.5 µM
20,CCCCn1c(-c2ccc(NC(=O)NC(C)C)cc2)c(C#N)c2ccc(OCC)cc21 [Compound 1017],< 0.5 µM
21,CCCS(=O)(=O)Nc1ccc(-c2c(C#N)c3ccc(OCC)cc3n2C2CCCC2)cc1 [Compound 1140],0.5 to 2 µM
22,C=CCNC(=O)Nc1ccc(-c2c(C#N)c3ccc(OCCCN4CCOCC4)cc3n2CC)cc1 [Compound 1125],< 0.5 µM
23,CCn1c(-c2ccc(NC(=O)OCCF)cc2)c(C#N)c2ccc(OCCCN3CCOCC3)cc21 [Compound 1113],0.5 to 2 µM
24,CCOc1ccc2c(C#N)c(-c3ccc(NC(=O)OC)cc3)n(C3CCC3)c2c1 [Compound 970],< 0.5 µM
25,CCCOc1ccc2c(C#N)c(-c3ccc(NC(=O)OCC4CC4)cc3)n(C(C)C)c2c1 [Compound 1241],< 0.5 µM
26,CCn1c(-c2ccc(NS(=O)(=O)C3CC3)c(F)c2)c(C#N)c2ccc(OC)cc21 [Compound 873],> 2 µM
27,CCOc1ccc2c(C#N)c(-c3ccc(NS(=O)(=O)C4CC4)cc3)n(C3CCCC3)c2c1 [Compound 1141],0.5 to 2 µM

row,Compound,IC50
1,C=CCNC(=O)Nc1ccc(-c2c(C#N)c3ccc(OCCF)cc3n2CC)cc1 [Compound 958],0.5 to 2 µM and < 0.5 µM
2,CCCCNC(=O)Nc1ccc(-c2c(C#N)c3ccc(OCC)cc3n2CC)cc1 [Compound 951],0.5 to 2 µM
3,CCCn1c(-c2ccc(NC(=O)OCCF)cc2)c(C#N)c2ccc(OCC)cc21 [Compound 1064],0.5 to 2 µM
4,CCOC(=O)Nc1ccc(-c2c(C#N)c3ccc(OC(F)F)cc3n2CC)cc1 [Compound 1131],0.5 to 2 µM
5,N#Cc1c(-c2ccc(NC(=O)OC3CCC3)cc2)n(C2CCC2)c2cc(OCCCCN3CCCC3)ccc12 [Compound 1258],< 0.5 µM
6,CCOc1ccc2c(c1)c(C#N)c(-c1ccc(NC(=O)OC3CCCC3)cc1)n2C1CCC1 [Compound 1199],< 0.5 µM
7,CCOc1ccc2c(C#N)c(-c3ccc(NC(=O)OCCF)cc3)n(CC(C)C)c2c1 [Compound 1059],0.5 to 2 µM
8,CCCCn1c(-c2ccc(NC(=O)NCC)cc2)c(C#N)c2ccc(OCC)cc21 [Compound 1016],0.5 to 2 µM
9,[4-(3-cyano-1-cyclobutyl-6-cyclopropyl-1H-indol-2-yl)-phenyl]-carbamic acid tert-butyl ester [Compound 2513],0.5 to 2 µM
10,CCCOc1ccc2c(C#N)c(-c3ccc(NC(=O)OCC)cc3)n(C(C)C)c2c1 [Compound 1202],< 0.5 µM
11,C=CCOC(=O)Nc1ccc(-c2c(C#N)c3cc(OC)ccc3n2C2CCC2)cc1 [Compound 1180],0.5 to 2 µM
12,COc1ccc2c(C#N)c(-c3ccc(NS(=O)(=O)C(C)C)cc3)n(C3CCC3)c2c1 [Compound 1103],0.5 to 2 µM
13,CCn1c(-c2ccc(NC(=O)OCCF)cc2)c(C#N)c2ccc(OC(F)(F)F)cc21 [Compound 888],0.5 to 2 µM
14,CCCOc1ccc2c(C#N)c(-c3ccc(NC(=O)OC4CCCC4)cc3)n(C(C)C)c2c1 [Compound 1205],< 0.5 µM
15,CCCOC(=O)Nc1ccc(-c2c(C#N)c3ccc(OC)cc3n2C2CCC2)cc1 [Compound 1074],0.5 to 2 µM
16,CCOC(=O)Nc1ccc(-c2c(C#N)c3cc(OCC)ccc3n2C2CCC2)cc1 [Compound 1193],< 0.5 µM
17,CCOc1ccc2c(C#N)c(-c3ccc(NC(=O)OCC4CC4)cc3)n(C3CCC3)c2c1 [Compound 1146],< 0.5 µM
18,CCOc1ccc2c(c1)c(C#N)c(-c1ccc(NC(=O)OC(C)C3CC3)cc1)n2C1CCC1 (stereo not shown) [Compound 1296],0.5 to 2 µM
19,CC(C)OC(=O)Nc1ccc(-c2c(C#N)c3ccc(OCCN4CCSCC4)cc3n2C2CCC2)cc1 [Compound 1273],0.5 to 2 µM
20,CC(C)OC(=O)Nc1ccc(-c2c(C#N)c3ccc(OCCCn4ccnc4)cc3n2C2CCC2)cc1 [Compound 1254],< 0.5 µM
21,N#Cc1c(-c2ccc(NS(=O)(=O)C3CC3)cc2)n(C2CCCC2)c2cc(OC(F)F)ccc12 [Compound 1189],< 0.5 µM
22,CCOc1ccc2c(C#N)c(-c3ccc(NC(=O)NC(C)C)cc3)n(C(C)C)c2c1 [Compound 1100],< 0.5 µM
23,CCn1c(-c2ccc(N3CCCS3(=O)=O)cc2)c(C#N)c2ccc(NC(=O)OC(C)(C)C)cc21 [Compound 1049],< 0.5 µM
24,CCOc1ccc2c(C#N)c(-c3ccc(NC(=O)OCCCCl)cc3)n(C3CCC3)c2c1 [Compound 977],< 0.5 µM
25,CCC(C)NC(=O)Nc1ccc(-c2c(C#N)c3ccc(OC(F)F)cc3n2CC2CC2)cc1 (stereo not shown) [Compound 1266],0.5 to 2 µM
26,CCn1c(-c2ccc(NC(=O)OC)cc2)c(C#N)c2ccc(OCCCN3CCOCC3)cc21 [Compound 1112],0.5 to 2 µM
27,CCNC(=O)Nc1cccc(-c2c(C#N)c3ccc(OCCCN4CCCC4)cc3n2CC)c1 [Compound 1045],< 0.5 µM

row,Compound,IC50
1,CCOc1ccc2c(C#N)c(-c3ccc(NS(=O)(=O)CCCCl)cc3)n(C3CCC3)c2c1 [Compound 935],< 0.5 µM and 0.5 to 2 µM
2,CCOc1ccc2c(C#N)c(-c3ccc(NC(=O)NC(C)C)cc3)n(C3CCC3)c2c1 [Compound 1080],< 0.5 µM
3,C[C@@H](OC(=O)Nc1ccc(-c2c(C#N)c3ccc(Oc4ncccn4)cc3n2C2CC2)cc1F)C1CC1 [Compound 2413],< 0.5 µM
4,CCn1c(-c2ccc(NC(=O)C3CC3)cc2)c(C#N)c2ccc(OCCn3cccn3)cc21 [Compound 1184],0.5 to 2 µM
5,CCOc1ccc2c(C#N)c(-c3ccc(NC(=O)OC4CCCC4)cc3)n(C(C)CC)c2c1 (stereo not shown) [Compound 1222],0.5 to 2 µM
6,CCCCOC(=O)Nc1ccc(-c2c(C#N)c3cc(OCC)ccc3n2C2CCC2)cc1 [Compound 1198],< 0.5 µM
7,CCCOc1ccc2c(C#N)c(-c3ccc(NC(=O)OC(C)C4CC4)cc3)n(C(C)C)c2c1 (stereo not shown) [Compound 1244],< 0.5 µM
8,CCOc1ccc2c(C#N)c(-c3ccc(NC(=O)OC(C)C(C)(C)C)cc3)n(C3CCC3)c2c1 (stereo not shown) [Compound 1312],< 0.5 µM
9,N#Cc1c(-c2ccc(NS(=O)(=O)C3CC3)cc2)n(C2CCC2)c2cc(OCC3CCCO3)ccc12 (stereo not shown) [Compound 1280],< 0.5 µM
10,CCCOc1ccc2c(C#N)c(-c3ccc(NC(=O)OC4CCOCC4)cc3)n(C(C)C)c2c1 [Compound 1248],< 0.5 µM
11,COc1ccc2c(c1)c(C#N)c(-c1ccc(NC(=O)OCC(C)(C)C)cc1)n2C1CCC1 [Compound 1233],< 0.5 µM
12,COc1ccc2c(c1)c(C#N)c(-c1ccc(NC(=O)NC(C)C)cc1)n2C1CCC1 [Compound 1163],0.5 to 2 µM
13,CCCNC(=O)Nc1ccc(-c2c(C#N)c3ccc(OCC)cc3n2C2CCCC2)cc1 [Compound 1144],< 0.5 µM
14,CCNc1ccc(-c2c(C#N)c3ccc(OCC)cc3n2C2CC2)cc1 [Compound 1311],< 0.5 µM
15,CCCS(=O)(=O)Nc1ccc(-c2c(C#N)c3cc(OCC)ccc3n2C2CCC2)cc1 [Compound 1229],0.5 to 2 µM
16,CCCCNC(=O)Nc1ccc(-c2c(C#N)c3ccc(OCC)cc3n2CCC)cc1 [Compound 1097],< 0.5 µM
17,CCn1c(-c2ccc(NC(=O)N3CCCCC3)cc2)c(C#N)c2ccc(OC)cc21 [Compound 1088],0.5 to 2 µM
18,CCC(=O)Nc1ccc(-c2c(C#N)c3ccc(OC(F)(F)F)cc3n2CC)cc1 [Compound 914],0.5 to 2 µM
19,CCS(=O)(=O)Nc1ccc(-c2c(C#N)c3cc(OC)ccc3n2C2CCC2)cc1 [Compound 1161],< 0.5 µM and 0.5 to 2 µM
20,CCOC(=O)Nc1ccc(-c2c(C#N)c3ccc(OCC)cc3n2C2CCC2)cc1 [Compound 971],< 0.5 µM
21,CCCCNC(=O)Nc1ccc(-c2c(C#N)c3ccc(OC(F)F)cc3n2CC)cc1 [Compound 1138],0.5 to 2 µM
22,CCCOC(=O)Nc1ccc(-c2c(C#N)c3ccc(OC)cc3n2COC)cc1 [Compound 993],0.5 to 2 µM
23,CCOc1ccc2c(C#N)c(-c3ccc(NC(=O)OCC4CCCO4)cc3)n(C3CCC3)c2c1 (stereo not shown) [Compound 1240],< 0.5 µM
24,CCCCn1c(-c2ccc(NC(=O)NCCC)cc2)c(C#N)c2ccc(OCC)cc21 [Compound 1066],0.5 to 2 µM
25,CCCNC(=O)Nc1ccc(-c2c(C#N)c3ccc(OC(F)F)cc3n2C2CCC2)cc1 [Compound 1187],0.5 to 2 µM
